# Data reported in patent US11840686B2, “Modulation of prekallikrein (PKK) expression” (Ionis Pharmaceuticals, Inc., priority 2013, dated 2023).
# Strand notation (5' to 3'): a small letter for the sugar, then the base; units joined by * are phosphorothioate-linked, units joined directly phosphodiester-linked; [ ] holds rarer units or linkages, { } end groups; capitals alone tell only the bases. e = 2'-O-(2-methoxyethyl) (MOE); k = constrained ethyl (cEt); [5mC] = 5-methylcytosine; d = 2'-deoxy (DNA)
# Test system: human PKK mRNA
# Test: Antisense inhibition of human PKK mRNA in HepaRG cells, 1,000 nM, MOE/deoxy/cEt oligonucleotides (Example 3)
# Assay type: cell-based
# How it was run: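 Readout is percent PKK mRNA reduction against untreated controls, by real-time PCR (RTS3454) adjusted for total RNA via RIBOGREEN. Oligonucleotides, phosphorothioate gapmers of 16 nucleosides with cEt, MOE and deoxy sugars, were delivered at 1,000 nM by electroporation to 20,000 HepaRG cells/well for roughly 24 h.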
# [1] = Table 19, HepaRG cells, electroporation with 1,000 nM antisense oligonucleotide, approximately 24 hours, PKK mRNA by RT-PCR (RTS3454), relative to untreated control cells
# [2] = Table 28, HepaRG cells, 1,000 nM antisense oligonucleotide, human PKK mRNA
# [3] = PKK mRNA, HepaRG cells, 1,000 nM antisense oligonucleotide, Table 31
# [4] = Table 27, HepaRG cells, 1,000 nM antisense oligonucleotide, human PKK mRNA
# [5] = Table 20, HepaRG cells, electroporation with 1,000 nM antisense oligonucleotide, approximately 24 hours, PKK mRNA by RT-PCR (RTS3454), relative to untreated control cells
# [6] = Table 22 experiment, HepaRG cells, electroporation with 1,000 nM antisense oligonucleotide, approx. 24 hours, PKK mRNA by RT-PCR (RTS3454), relative to untreated control cells
substance,measurement,setting,value
548132 (eG*eA*kA*dT*dT*dT*dG*dA*d[5mC]*dT*dT*dG*dA*kA*k[5mC]*eT; antisense) [compound 548132],% inhibition,[1],0%
548482 (eG*eG*k[5mC]*dA*dG*dT*dT*dA*dG*dG*d[5mC]*d[5mC]*dA*kG*kG*eA; antisense) [compound 548482],% inhibition,[2],53%
548466 (e[5mC]*eG*kT*d[5mC]*dA*d[5mC]*dT*dG*dT*dA*d[5mC]*d[5mC]*dT*kA*kT*eA; antisense) [compound 548466],% inhibition,[2],71%
548395 (eA*eT*k[5mC]*d[5mC]*dT*dT*d[5mC]*d[5mC]*d[5mC]*d[5mC]*dT*d[5mC]*dG*k[5mC]*kA*eA; antisense) [compound 548395],% inhibition,"Table 30, human PKK mRNA, HepaRG cells, 1,000 nM antisense oligonucleotide",0%
548676 (antisense eG*eT*kG*dA*dA*dT*d[5mC]*dA*dG*dA*dG*d[5mC]*dA*kG*kT*eG) [compound 548676],% inhibition,[3],63%
548514 (antisense eT*e[5mC]*kG*dA*dG*dG*dA*d[5mC]*dA*dG*d[5mC]*d[5mC]*d[5mC]*k[5mC]*k[5mC]*eA) [compound 548514],% inhibition,[2],40%
547952 (e[5mC]*eA*kG*dA*dT*dA*dT*dG*dG*dT*dG*dT*dT*kT*kT*e[5mC]; antisense) [compound 547952],% inhibition,"HepaRG cells, electroporation with 1,000 nM antisense oligonucleotide, approximately 24 hours, primer probe set RTS3454, relative to untreated control cells, experiment of Table 23",46%
548610 (antisense eG*eG*kA*dT*d[5mC]*dG*dG*dT*dG*dG*dT*dG*dG*kG*kA*eT) [compound 548610],% inhibition,"HepaRG cells, 1,000 nM antisense oligonucleotide, Table 29",2%
548012 (eT*e[5mC]*k[5mC]*d[5mC]*d[5mC]*dA*dG*dT*dG*dT*dT*dA*d[5mC]*kA*k[5mC]*eA; antisense) [compound 548012],% inhibition,"HepaRG cells, electroporation with 1,000 nM antisense oligonucleotide, approximately 24 hours, primer probe set RTS3454, relative to untreated control cells, experiment of Table 24",3%
548533 (antisense eG*eA*kG*dG*dT*dG*dG*dT*dT*dG*dG*dA*dG*k[5mC]*kT*eA) [compound 548533],% inhibition,[2],9%
548313 (eG*e[5mC]*k[5mC]*dT*dT*dT*dG*dA*dG*dG*dG*dA*dG*kT*kG*eG; antisense) [compound 548313],% inhibition,[4],35%
547767 (antisense eT*eG*kG*dA*dG*dG*dT*dG*dA*dG*dT*d[5mC]*dT*k[5mC]*kT*eT) [compound 547767],% inhibition,"Table 21 experiment, HepaRG cells, electroporation with 1,000 nM antisense oligonucleotide, approx. 24 hours, PKK mRNA by RT-PCR (RTS3454), relative to untreated control cells",74%
548464 (eG*eT*k[5mC]*d[5mC]*dT*dA*dT*dA*dA*d[5mC]*dT*dA*dT*kA*kT*e[5mC]; antisense) [compound 548464],% inhibition,[2],0%
548618 (antisense eG*eT*kT*dG*dG*dT*dG*dG*d[5mC]*dG*dG*dG*dA*kT*k[5mC]*eG) [compound 548618],% inhibition,[3],18%
548126 (eT*eG*k[5mC]*d[5mC]*dT*dA*dG*dA*d[5mC]*dT*d[5mC]*dT*dG*kG*kA*e[5mC]; antisense) [compound 548126],% inhibition,[1],19%
547874 (antisense eA*e[5mC]*kT*dG*d[5mC]*dT*dA*dA*d[5mC]*d[5mC]*dT*dT*dA*kG*kA*e[5mC]) [compound 547874],% inhibition,[5],70%
same,% inhibition,[6],60%
548260 (antisense eA*eG*kG*dA*dG*dT*dT*dT*dG*dT*d[5mC]*dA*dG*kA*kA*e[5mC]) [compound 548260],% inhibition,"HepaRG cells, electroporation with 1,000 nM antisense oligonucleotide, approx. 24 hours, PKK mRNA by RT-PCR (RTS3454), relative to untreated control cells, Table 26 experiment",28%
547882 (e[5mC]*eT*kG*dG*d[5mC]*dA*dG*d[5mC]*dG*dA*dA*dT*dG*kT*kT*eA; antisense) [compound 547882],% inhibition,[5],91%
same,% inhibition,[6],96%
548351 (antisense e[5mC]*eT*kG*dG*dA*dA*dA*d[5mC]*dG*dA*dG*dA*d[5mC]*kA*k[5mC]*eA) [compound 548351],% inhibition,[4],33%
548311 (eT*eG*kA*d[5mC]*d[5mC]*dA*d[5mC]*d[5mC]*dT*d[5mC]*dT*d[5mC]*dG*kG*kG*eT; antisense) [compound 548311],% inhibition,[4],10%
548682 (antisense eG*eT*kA*dT*d[5mC]*d[5mC]*d[5mC]*d[5mC]*dT*dT*dT*dT*d[5mC]*kT*kA*eT) [compound 548682],% inhibition,[3],0%
